Data on 49 compounds can be found in patent US10611728B2, “Isoindoline compositions and methods for treating neurodegenerative disease” (priority 2014, dated 2020).

Each structure is given as a SMILES string. Entries after “also recorded” stand apart in the source; their conditions may differ.

System in one series: not listed separately
Briefly: Microsomal stability in mouse liver microsomes (MLM). Type of series: in vitro ADME. Particulars: mouse, microsomes. How it is done: A first pharmacokinetic study was performed in microsomes of mice mouse liver microsomes, MLM) by a commercial contract research organization. The studies were performed according to Obach, R. S et al. (1997) J. Pharmacol. Exp. Ther., 283: 46-58, which is incorporated herein by reference.
As for `C[C@H](CCc1ccc(O)c(OC(F)(F)F)c1)N1Cc2ccc(F)cc2C1` [compound 31], the “Mouse liver microsomes, MLM t½” value came to 6 min.

Consider `C[C@H](CCc1ccc(Cl)c(Cl)c1)N1Cc2cccc(Cl)c2C1.Cl` [compound 16], for which the “Mouse liver microsomes, MLM t½” value came to 12 min.

Consider `COc1cc(CC[C@@H](C)N2Cc3cc(Cl)c(Cl)cc3C2)ccc1O` [compound 3], for which the “Mouse liver microsomes, MLM t½” value is 21 min.

In the case of `CC(C)Oc1cc(CC[C@@H](C)N2Cc3cc4c(cc3C2)OCO4)ccc1O` [compound 25], the “Mouse liver microsomes, MLM t½” value is given as 4 min.

With `CC(C)COc1cc(CCC(C)(C)N2Cc3cccc(F)c3C2)ccc1O` [compound 88], the “Mouse liver microsomes, MLM t½” value was 28 min.

With `CC(C)Oc1cc(CC[C@@H](C)N2Cc3ccc(S(C)(=O)=O)cc3C2)ccc1O` [compound 69], the “Mouse liver microsomes, MLM t½” value worked out at 75 min.

Take `COc1cc2c(cc1OC)CN([C@@H](C)CCc1ccc(Cl)c(Cl)c1)C2` [compound 20]: the “Mouse liver microsomes, MLM t½” value is 43 min.

On to `COc1cc(CCC(C)(C)N2Cc3ccc(F)cc3C2)ccc1OC(=O)N(C)C` [compound 50], for which the “Mouse liver microsomes, MLM t½” value was found to be 33 min.

As for `COc1cc(CC[C@@H](C)N2Cc3cccc(F)c3C2)ccc1O` [compound 8], the “Mouse liver microsomes, MLM t½” value was 16 min.

With `COc1cc(CCC(C)(C)N2Cc3ccc(F)cc3C2)ccc1OCCO` [compound 45], the “Mouse liver microsomes, MLM t½” value worked out at 96 min.

`CC(C)(C)Oc1cc(CCC(C)(C)N2Cc3ccc(S(C)(=O)=O)cc3C2)ccc1O` [compound 62]: the “Mouse liver microsomes, MLM t½” value is recorded as 45 min.

On to `CC(C)(CCc1ccc(O)c(OC(F)(F)F)c1)N1Cc2cccc(C(=O)N3CCOCC3)c2C1` [compound 94], for which the “Mouse liver microsomes, MLM t½” value came to 14 min.

Take `CC(C)(C)Oc1cc(CCC(C)(C)N2Cc3c(F)ccc(F)c3C2)ccc1O` [compound 74]: the “Mouse liver microsomes, MLM t½” value came out at 21 min.

In the case of `CC(C)COc1cc(CCC(C)(C)N2Cc3cccc(C(=O)N4CCN(C)CC4)c3C2)ccc1O` [compound 91], the “Mouse liver microsomes, MLM t½” value is reported as 6 min.

As for `CC(C)Oc1cc(CCC(C)(C)N2Cc3ccc(S(C)(=O)=O)cc3C2)ccc1O` [compound 70], the “Mouse liver microsomes, MLM t½” value came to 79 min.

Consider `COC[C@H](CCc1ccc(Cl)c(Cl)c1)N1Cc2ccc(F)cc2C1` [compound 46], for which the “Mouse liver microsomes, MLM t½” value amounted to 5 min.

Consider `C[C@H](CCc1ccc(F)cc1)N1Cc2cc3c(cc2C1)OCO3` [compound 23], for which the “Mouse liver microsomes, MLM t½” value is recorded as 5 min.

Regarding `COc1cc(CCC(C)(C)N2Cc3cccc(S(C)(=O)=O)c3C2)ccc1O` [compound 64], the “Mouse liver microsomes, MLM t½” value turned out to be 52 min.

In the case of `C[C@H](CCc1ccc(O)c(OC(C)(C)C)c1)N1Cc2c(F)ccc(F)c2C1` [60A], the “Mouse liver microsomes, MLM t½” value amounted to 5 min.

On to `C[C@H](CCc1ccc(O)c(OC(C)(C)C)c1)N1Cc2cccc(F)c2C1` [60B], for which the “Mouse liver microsomes, MLM t½” value is recorded as 8 min.

As for `CN1CCN(C(=O)c2cccc3c2CN(C(C)(C)CCc2ccc(O)c(OC(F)(F)F)c2)C3)CC1` [compound 93], the “Mouse liver microsomes, MLM t½” value is on record as 5 min.

Consider `COc1cc(CC[C@@H](C)N2Cc3ccc(Cl)cc3C2)ccc1O` [compound 1], for which the “Mouse liver microsomes, MLM t½” value is 11 min.

For the compound `COc1cc(CC[C@@H](C)N2Cc3cccc(S(C)(=O)=O)c3C2)ccc1O` [compound 65], the “Mouse liver microsomes, MLM t½” value is on record as 41 min.

For `C[C@H](CCc1ccc(OC(=O)N(C)C)c(OC(F)(F)F)c1)N1Cc2cccc(F)c2C1` [compound 41], the “Mouse liver microsomes, MLM t½” value worked out at 9 min.

In the case of `C[C@H](CCc1ccc(OC(=O)N(C)C)c(OC(F)(F)F)c1)N1Cc2ccc(F)cc2C1` [compound 43], the “Mouse liver microsomes, MLM t½” value is listed as 5 min.

`C[C@H](CCc1ccc(O)c(OC(C)(C)C)c1)N1Cc2ccc(S(C)(=O)=O)cc2C1` [compound 63]: the “Mouse liver microsomes, MLM t½” value came out at 31 min.

For the compound `COc1cc(CCC(C)N2Cc3ccc4ccccc4c3C2)ccc1O.Cl` (stereo not drawn) [compound 17], the “Mouse liver microsomes, MLM t½” value is listed as 10 min.

Regarding `CC(C)(CCc1ccc(F)cc1)N1Cc2cccc(F)c2C1` [compound 33], the “Mouse liver microsomes, MLM t½” value was found to be 9 min.

For `CC(C)Oc1cc(CC[C@@H](C)N2Cc3ccc(F)cc3C2)ccc1O` [compound 37], the “Mouse liver microsomes, MLM t½” value is given as 5 min.

As for `CC(C)Oc1cc(CC[C@@H](C)N2Cc3cccc(F)c3C2)ccc1O` [compound 26], the “Mouse liver microsomes, MLM t½” value was found to be 4 min.

For `C[C@H](CCc1ccc(Cl)c(Cl)c1)N1Cc2ccc(C(F)(F)F)cc2C1` [compound 4], the “Mouse liver microsomes, MLM t½” value is reported as 40 min.

In the case of `COc1cc(CCC(C)(C)N2Cc3cccc(C(=O)N4CCN(C)CC4)c3C2)ccc1O` [compound 82], the “Mouse liver microsomes, MLM t½” value is recorded as 27 min.

Regarding `C[C@H](CCc1ccc(F)cc1)N1Cc2ccc(F)cc2C1` [compound 22], the “Mouse liver microsomes, MLM t½” value turned out to be 7 min.

As to `COc1cc2c(cc1OC)CN(C(C)(C)CCc1ccc(F)cc1)C2` [compound 34], the “Mouse liver microsomes, MLM t½” value turned out to be 46 min.

With `COc1cc(CC[C@@H](C)N2Cc3cccc(F)c3C2)ccc1OCCO` [compound 51], the “Mouse liver microsomes, MLM t½” value was 66 min.

In the case of `CC(C)Oc1cc(CCC(C)(C)N2Cc3cccc(F)c3C2)ccc1O` [compound 28], the “Mouse liver microsomes, MLM t½” value was 4 min.

On to `Cc1ccc2c(c1)CN([C@H](C)CCc1ccc(Cl)c(Cl)c1)C2` [compound 13], for which the “Mouse liver microsomes, MLM t½” value is listed as 3 min.

Consider `C[C@H](CCc1ccc(Cl)c(Cl)c1)N1Cc2cc3c(cc2C1)OCO3` [compound 10], for which the “Mouse liver microsomes, MLM t½” value was 8 min.

Turning to `C[C@H](CCc1ccc(Cl)c(Cl)c1)N1Cc2ccc3ccccc3c2C1` [compound 19], the “Mouse liver microsomes, MLM t½” value was 25 min.

Take `C[C@H](CCc1ccc(Cl)c(Cl)c1)N1Cc2ccc(F)cc2C1.Cl` [compound 12]: the “Mouse liver microsomes, MLM t½” value was found to be 13 min.

`COc1cc(CC[C@@H](C)N2Cc3ccc(C(F)(F)F)cc3C2)ccc1O` [compound 2]: the “Mouse liver microsomes, MLM t½” value came to 28 min.

In the case of `CC(C)(CCc1ccc(O)c(OC(F)(F)F)c1)N1Cc2cccc(S(C)(=O)=O)c2C1` [compound 67], the “Mouse liver microsomes, MLM t½” value is 39 min.

Regarding `CC(C)Oc1cc(CCC(C)(C)N2Cc3cc4c(cc3C2)OCO4)ccc1O` [compound 29], the “Mouse liver microsomes, MLM t½” value was 6 min.

For the next series, the system named is neuronal cultures. Nature of the series: Functional neuronal phenotype in neuronal cultures. Type of series: cell-based.
Conditions: not given
`CC(C)Oc1cc(CC[C@@H](C)N2Cc3cc4c(cc3C2)OCO4)ccc1O` [compound 25]: the neuronal phenotype entry is “Inactive/IAACon”.

Regarding `C[C@H](CCc1ccc(OC(=O)N(C)C)c(OC(F)(F)F)c1)N1Cc2cccc(F)c2C1` [compound 41], the neuronal phenotype result is recorded as “Inactive/IAACon”.

Turning to `CC(C)Oc1cc(CCC(C)(C)N2Cc3cc4c(cc3C2)OCO4)ccc1O` [compound 29], the neuronal phenotype entry is reported as “Inactive/IAACon”.

The next series has as its system Abeta oligomer-induced synapse loss in primary hippocampal neurons. Briefly: Abeta 1-42 oligomer synapse loss assay. Particulars: Abeta 42 oligomers. Type of series: cell-based, rat.
Experimental: In this assay, Abeta oligomers are brought in contact with mature primary neurons in culture and their binding was determined by immunohistochemistry (anti-Abeta antibody) and quantified by image processing. The amount of Abeta in neuronal dendrites is assessed by counting the number of labeled puncta on the neuritis. […] This labeling is associated with synapses, co-localizing with the post-synaptic scaffold protein PSD-95 (Lacor et al., '04). […] The number of synapses can also be quantified in this assay by immunofluorochemistry.
Primary hippocampal neuronal culture is established as in the membrane trafficking assay above. […] Pretreatment with test compounds for 1 hr and addition of Abeta oligomers or no oligomer (vehicle alone) is followed by incubation for an additional 23 hrs.
The plates are then washed 3× with PBS for 5 min each. The plates are blocked at RT for 1 hr in 5% goat serum and 0.5% Triton X-100 in PBS. Primary antibodies (anti-MAP 2 polyclonal, Millipore # AB5622 and anti-Beta Amyloid 6E10 monoclonal, Covance # SIG-39300, at 1 microgram/ml, and rabbit polyclonal anti-synaptophysin, Anaspec, at 0.2 microgram/ml) were diluted 1:1000 in 5% goat serum with PBS. Primary antibodies are incubated overnight at 4° C. The plates are then washed 3× with PBS for 5 min each. Secondary antibodies (Alex Flor 488 polyclonal, Invitrogen # A11008 and Alexa Flor 647 monoclonal, Invitrogen # A21235) are diluted 1:1000 in 5% goat serum with PBS. Secondary antibodies are incubated at RT for 1 hr. The plates are washed once with PBS. DAPI (4′,6-diamidino-2-phenylindole, Invitrogen) is then applied at 0.03 ug/ul and incubated at RT for 5 min, then washed with PBS.
Take `CCC(Oc1ccc(Cl)cc1)C(=O)OC1CC2CCC(C1)N2C` (stereo not drawn) [SM-21]: the “elimination of Abeta oligomer-induced synapse loss” value is “only weakly active in eliminating synapse loss” and the “recovery of synapse loss” value is listed as 20%.

In the case of `O=C(CCCN1CCC(O)(c2ccc(Cl)cc2)CC1)c1ccc(F)cc1` [haloperidol], the “elimination of Abeta oligomer-induced synapse loss” value is “completely eliminated synapse loss”.

Take `CCCN(CCC)CCc1ccc(OC)c(OCCc2ccccc2)c1` [NE-100]: the “elimination of Abeta oligomer-induced synapse loss” value is on record as “completely eliminated synapse loss”.

The next series relates to neurons.
Assay: not given
Particulars: neuronal cultures treated 24 hours; cited from earlier work.
As for `COc1ccc(C)cc1NC(=O)OC1C[C@H]2CCC[C@@H](C1)N2CCCCCCN` (stereo partly drawn) [SV-119], the “nuclear morphology / nuclear intensity in neurons” value is listed as “cause significant abnormal nuclear morphology in neurons”.

For `COc1cc2c(cc1OC)CN(CCCCNC(=O)c1cc(C)ccc1OC)CC2` [RHM-1, N-[4-(3,4-dihydro-6,7-dimethoxyisoquinolin-2(1H)-yl)butyl]-2-methoxy-5-methylbenzamide], the “nuclear morphology / nuclear intensity in neurons” value is recorded as “do not decrease nuclear intensity”.

In the case of `Fc1ccc(-n2cc(CCCCN3CCC4(CC3)OCc3ccccc34)c3ccccc32)cc1` [Siramesine], the “nuclear morphology / nuclear intensity in neurons” value is given as “cause significant abnormal nuclear morphology in neurons”.

A further series concerns caspase-3.
Assay: not given
Particulars: tumor cells and neurons; cited from earlier work.
As to `COc1ccc(C)cc1NC(=O)OC1C[C@H]2CCC[C@@H](C1)N2CCCCCCN` (stereo partly drawn) [SV-119], the “caspase-3 activation by ligand” value is “activate caspase-3 in tumor cells and neurons”.

`COc1cc2c(cc1OC)CN(CCCCNC(=O)c1cc(C)ccc1OC)CC2` [RHM-1, N-[4-(3,4-dihydro-6,7-dimethoxyisoquinolin-2(1H)-yl)butyl]-2-methoxy-5-methylbenzamide]: the “caspase-3 activation by ligand” value is recorded as “do not induce caspase-3 activity”.

For the compound `Fc1ccc(-n2cc(CCCCN3CCC4(CC3)OCc3ccccc34)c3ccccc32)cc1` [Siramesine], the “caspase-3 activation by ligand” value was “activate caspase-3 in tumor cells and neurons; also recorded: induces caspase-3 activity”.

Staying with this series, now noted: tumor cells; cited from earlier work.
Turning to `COc1cc2c(cc1OC)CN(CCCCNC(=O)c1cc(C)ccc1OC)CC2` [RHM-1, N-[4-(3,4-dihydro-6,7-dimethoxyisoquinolin-2(1H)-yl)butyl]-2-methoxy-5-methylbenzamide], the “inhibition of caspase-3 activation in tumor cells” value is on record as “inhibits the activation in tumor cells”.
